Assay results from patent US20220257722A1, “COMPOSITIONS AND METHODS OF TREATING AND PREVENTING SYSTEMIC COMPLICATIONS OF ACUTE ILLNESS” (United States Government As Represented By The Department …, priority 2019, published 2022).

Experiments:
rat jejunal mucosa = assay: FITC-LPS mucosal-to-serosal transport in Ussing-chambered rat jejunal mucosa (FITC fluorescence); type: cell-based; details: mucosal FITC-LPS 10 μg/ml; SSO 0.1 mM or MβCD 1 mM
Protocol: Short-circuit current measurements in Ussing chambered preparations. Mucosa-submucosa preparations were prepared from the mid-jejunum (˜20 cm from the pyloric ring) by muscle stripping using fine forceps under a stereomicroscope. Two or four preparations were prepared from one animal. The tissue was then mounted between two hemi-sliders with an aperture=0.3 cm^2 (Physiologic Instruments, San Diego, Calif., USA). Chambers were bathed with serosal and luminal bathing solutions in a volume of 4 ml each, maintained at 37° C. using a water recirculating heating system. […] Short-circuit current (Isc) was continuously measured with tissue conductance (Gt) and TEER (Ω·cm^2) determined every 20 sec in order to assess the tissue integrity during the LPS and lipid exposure. The current was recorded by the DataQ system (Physiologic Instruments). […]
LPS movement from mucosal to serosal solution. LPS movement m-to-s was assessed using a LAL test kit (Pierce Chromogenic Endotoxin Quant Kit, Pierce Biotechnology, Rockford, Ill., USA), which eliminates non-specific detection of (1,3)-β-D-glucan, then reduces false-positive LPS measurements. […] LPS content in the serosal solutions was measured with the LAL test according to the manufacturer's protocol. The value of background at t=0 min was subtracted and the serosal LPS appearance was expressed as Δ[LPS] […]

[1] = tested on: murine model of pancreatitis; assay: Cerulein-induced acute pancreatitis in mice: organ cytokines, PV LPS, FD4 uptake, histology; type: in vivo, C57BL/6 mice
Protocol: Methods. Pancreatitis was induced in C57BL/6 male and female mice at 8-10 weeks of age by multiple injections of cerulein (50 μg/kg, ip, hourly, 8 times). Samples (e.g., PV and abdominal arterial blood) were collected 0, 18, and 24 hrs after the final injection of cerulein. Tissues were removed and stored for histology and real-time polymerase chain reaction (PCR)-based expression analysis. TDG, (500 μg/kg, ip) was given 0 and 18 hrs after the final injection of cerulein, followed by sampling 24 hrs after the final injection of cerulein. Proinflammatory cytokines was assessed by real-time PCR; PV LPS levels were measured using the limulus amebocyte lysate (LAL) test.

[2] = cited from earlier work
[3] = 24 hrs after cerulein treatment

Compound	OA/TCA-increased serosal LPS content measured by FITC fluorescence intensity (rat jejunal mucosa)	PV LPS levels ([1]; 18 and 24 hrs after cerulein treatment, LAL test, TDG 500 μg/kg ip)	PV FD4 levels ([1]; 18 and 24 hrs after cerulein treatment, TDG 500 μg/kg ip)	histological changes in the pancreas [1, 3]	lung inflammation (histology) [1, 3]	Plasma TNFα levels ([1]; 24 hrs after cerulein treatment, TDG 500 μg/kg ip)	increased expression of IL-1β and IL-6 in the pancreas ([1]; TDG 500 μg/kg ip 0 and 18 hrs after final cerulein)	elevated lipase levels ([1]; TDG 500 μg/kg ip 0 and 18 hrs after final cerulein, plasma)	inflammatory cytokine expression in the lung ([1]; TDG 500 μg/kg ip 0 and 18 hrs after final cerulein, sampling 24 hrs, real-time PCR)	elimination half-life ([2]; in humans)	serum t1/2 ([2]; reference [44]) [h]
CCCCCCCC/C=C\CCCCCCCC(=O)ON1C(=O)CC(S(=O)(=O)O)C1=O (stereo not drawn) [SSO, sulfosuccinimidyl oleate]	abolished										
CC[C@H](C)[C@H](NC(=O)[C@H](Cc1ccccc1)NC(=O)[C@H](CC(=O)O)NC(=O)[C@H](CCCNC(=N)N)NC(=O)[C@H](C)NC(=O)[C@H](C)NC(=O)[C@H](CC(C)C)NC(=O)[C@H](CC(N)=O)NC(=O)[C@H](CC(=O)O)NC(=O)[C@H](CC(C)C)NC(=O)[C@@H](NC(=O)[C@@H](NC(=O)[C@H](CC(N)=O)NC(=O)[C@H](CCSC)NC(=O)[C@H](CCC(=O)O)NC(=O)[C@H](CC(=O)O)NC(=O)[C@H](CO)NC(=O)[C@H](Cc1ccccc1)NC(=O)[C@H](CO)NC(=O)CNC(=O)[C@H](CC(=O)O)NC(=O)CNC(=O)[C@@H](N)Cc1c[nH]cn1)[C@@H](C)O)[C@@H](C)CC)C(=O)N[C@@H](CC(N)=O)C(=O)N[C@@H](Cc1c[nH]c2ccccc12)C(=O)N[C@@H](CC(C)C)C(=O)N[C@H](C(=O)N[C@@H](CCC(N)=O)C(=O)N[C@H](C(=O)N[C@@H](CCCCN)C(=O)N[C@H](C(=O)N[C@H](C(=O)N[C@@H](CC(=O)O)C(=O)O)[C@@H](C)O)[C@@H](C)CC)[C@@H](C)O)[C@@H](C)CC [TDG]		significantly reduced	significantly reduced	no effect	reduced	reversed	no effect	no effect	significantly reduced	about 2 hours	~2
methyl-β-cyclodextrin [MβCD]	abolished										
